Values of other authors as cited in PMC10005815 (Journal of Medicinal Chemistry, 2023).
Read-outs that look alike come from different tables or passages of the source.

Tested on: SARS-CoV-2

Q: Which “Increase of EC50 (resistance selection)” value does the source give for `N#C[C@]1(c2ccc3c(N)ncnn23)O[C@@H](CO)[C@H](O)[C@@H]1O` [GS-441524] here?
A: The value was 2.7–10.4 fold.

Q: Which EC50 (read-out: SARS-CoV-2 VOCs EC50) does the source give for `Cn1cnc(Cn2c(=O)[nH]/c(=N\c3cc4cn(C)nc4cc3Cl)n(Cc3cc(F)c(F)cc3F)c2=O)n1` [S-217622] here?
A: The EC50 was 290 to 500 nM.

Q: Which EC50 (read-out: EC50 against γ, δ, and o variants) does the source give for `COc1ccc(C(=O)Nc2cccc(C(F)(F)F)c2)cc1Nc1nc(-c2cccnc2)c2[nH]ccc2n1` [XMU-MP-7] here?
A: Its EC50 is less than 6.9 nM.
